Test results as given in US12378211B2, “Carbonic anhydrase inhibitors and antibiotics against multidrug resistant bacteria” (Purdue Research Foundation, priority 2018, dated 2025).
Where two headings read alike, the source gives them in different places.

Assays:
[1] = tested on: vancomycin-resistant E. faecium; test: Mouse model of GI colonization by VRE; format: in vivo, C57BL/6 mice; conditions: 10 mg/kg by oral gavage for 8 days; feces as early as 3rd day
Excerpt: Feasibility in vivo study: AZM reduces VRE load in the intestines and faeces. The promising feature, and the specific and potent antimicrobial activity of CAIs, prompted us to evaluate the in vivo efficacy of AZM in our established mouse model of GI colonization by enterococci with features that mimic the antibiotic-induced enterococcal expansion observed in humans (Mohammad, H. et al., Int J Antimicrob Agents 2018, 51, 897-904; Abdelkhalek, A, et al., PLoS One 2018, 13, e0199710). We tested AZM (two clinical doses 10 and 20 mg/kg) in female 12-week-old C57BL/6 mice (n=5 mice per group) that were sensitized with ampicillin ([…] in drinking water) for 7 days to reduce the microbiota present in the gastrointestinal tract and colonized with 10^8 CFU/mL of vancomycin-resistant E. faecium.
We thought that the rapid absorption of AZM from the gastrointestinal tract would limit their exposure time to VRE present in the gastrointestinal tract.
Mice were treated for 8 days with 10 mg/kg of drugs by oral gavage.

[2] = Preliminary in vivo toxicity study; conditions: 200 mg/kg twice daily (400 mg/kg daily) for three days
[3] = tested on: Enterococcus faecalis-S613 HM-334; test: MIC in presence of 4% human serum albumin; format: cell-based; conditions: Enterococcus; TSB supplemented with 4% human serum albumin; read-out: MIC
Experimental: (§1) The minimum inhibitory concentrations (MICs) of CAIs were tested against vancomycin resistant Enterococcus faecalis—S613 HM 334 strain as per the guidelines provided by the Clinical and Laboratory Standards Institute (CLSI). The selected strain was streaked on Tryptic Soy Agar (TSA) plate and let grow for 24 hours at 37° C. Afterwards, a bacterial solution equivalent to 0.5 McFarland standard was prepared and diluted in tryptone soy broth (TSB) supplemented with 4% human serum albumin (HAS) to achieve a bacterial concentration of about 5×10^5 CFU/mL and seeded in 96-well well plates. Compounds and control drugs were added in the first row of the 96-well plates and serially diluted along the plates. Plates were then incubated aerobically at 37° C. for 18-20 hours. MICs reported in table (6) are the minimum concentration of the compounds/control drugs that could inhibit completely the visual growth of the bacteria.

[4] = tested on: Enterococcus faecium E417-HM-965; test: MIC of CAIs in BHIB and TSB; format: cell-based; conditions: Enterococcus faecium, read-out: MIC
Experimental: as §1, with “against clinical isolates of vancomycin sensitive and” for “against”, “resistant Enterococci strains” for “resistant Enterococcus faecalis—S613 HM 334 strain”, “selected strains of Enterococci were” for “selected strain was”, “(TSA) plates” for “(TSA) plate”, “(TSB) or brain heart infusion broth (BHIB)” for “(TSB) supplemented with 4% human serum albumin (HAS)”, “in Table 5” for “in table (6)”

[5] = tested on: Enterococcus fecalis Strain SF 24397 NR31970; test: MIC of CAIs in BHIB and TSB; format: cell-based; conditions: Enterococcus, read-out: MIC
Experimental: as §1, with “against clinical isolates of vancomycin sensitive and” for “against”, “resistant Enterococci strains” for “resistant Enterococcus faecalis—S613 HM 334 strain”, “selected strains of Enterococci were” for “selected strain was”, “(TSA) plates” for “(TSA) plate”, “(TSB) or brain heart infusion broth (BHIB)” for “(TSB) supplemented with 4% human serum albumin (HAS)”, “in Table 5” for “in table (6)”

[6] = tested on: Enterococcus faecium Patient #2-1-NR-31909; test: MIC of CAIs in BHIB and TSB; format: cell-based; conditions: Enterococcus faecium, read-out: MIC
Experimental: as §1, with “against clinical isolates of vancomycin sensitive and” for “against”, “resistant Enterococci strains” for “resistant Enterococcus faecalis—S613 HM 334 strain”, “selected strains of Enterococci were” for “selected strain was”, “(TSA) plates” for “(TSA) plate”, “(TSB) or brain heart infusion broth (BHIB)” for “(TSB) supplemented with 4% human serum albumin (HAS)”, “in Table 5” for “in table (6)”

gut microbiota = tested on: gut microbiota; set-up: species or system C57BL/6 mice; conditions: mouse, in vivo, po, 10 mg/kg
Experimental: CAIs had no major impact on microbiota composition. An extremely promising and innovative feature of CAIs is their narrow spectrum of activity and their ability to decolonize VRE without harming the microbiome. […] To characterize the impact of CAIs administration on the composition of the gut microbiota we performed the following assay6. Female 12-week-old C57BL/6 mice (n=5 mice per group) were exposed to CAIs by oral gavage for 10 days (10 mg/kg daily). Twenty-four hours after last dose, mice were euthanized and cecal and colon contents were harvested. The microbiome was characterized using 16S rDNA gene sequencing. The microbiotas from treated mice were compared to those from a group of control mice. […] However, at the phylum level, we observed decrease in Firmicutes in CAIs treatment groups and likely due to decrease of enterococci as enterococcus is a large genus of the phylum Firmicutes. The Verrucomicrobia and Bacteroidetes remain constant while other phyla increase to fill the remaining percentage from Firmicute loss. […] Indeed, the use of traditional antibiotics can increase the selective pressure and contribute to the selection of other multi-drug-resistant organisms (Kofteridis D. et al., Int J Infect Dis 2009, 13, e313-315).

[7] = tested on: Enterococcus faecalis—S613 HM-334; test: MIC of CAIs in BHIB and TSB; format: cell-based; conditions: Enterococcus, read-out: MIC
Experimental: The minimum inhibitory concentrations (MICs) of CAIs were tested against clinical isolates of vancomycin sensitive and vancomycin resistant Enterococci strains as per the guidelines provided by the Clinical and Laboratory Standards Institute (CLSI). The selected strains of Enterococci were streaked on Tryptic Soy Agar (TSA) plates and let grow for 24 hours at 37° C. Afterwards, a bacterial solution equivalent to 0.5 McFarland standard was prepared and diluted in tryptone soy broth (TSB) or brain heart infusion broth (BHIB) to achieve a bacterial concentration of about 5×10^5 CFU/mL and seeded in 96-well well plates. Compounds and control drugs were added in the first row of the 96-well plates and serially diluted along the plates. Plates were then incubated aerobically at 37° C. for 18-20 hours. MICs reported in Table 5 are the minimum concentration of the compounds/control drugs that could inhibit completely the visual growth of the bacteria. The MIC values of CAIs against the tested VRE strains were higher in BHIB than in TSB. This may be due to binding of these drugs to proteins. […] They inhibited the VRE strains at MIC values ranging from 1 to 4 μg/mL.

Structure (SMILES) | reduction of VRE in the feces, cecum and ileum [1] | signs of distress or toxicity [2] | MIC [3] [µg/mL] | MIC ([4]; E417HM965, BHIB) [µg/mL] | MIC ([4]; E417HM965, TSB, Table 5) [µg/mL] | MIC ([5]; BHIB) [µg/mL] | MIC ([5]; TSB, Table 5) [µg/mL] | MIC ([6]; BHIB) [µg/mL] | MIC ([6]; TSB, Table 5) [µg/mL] | taxonomic structure and composition of microbiota (gut microbiota) | MIC ([7]; BHIIB) [µg/mL] | MIC ([7]; TSB, Table 5) [µg/mL]
NS(=O)(=O)c1nnc(NCc2ccccc2C(F)(F)F)s1 [analog 8, 5-((2-(trifluoromethyl)benzyl)amino)-1,3,4-thiadiazole-2-sulfonamide] | superior to AZM and linezolid | None of the mice exhibited any signs of distress or toxicity |  |  |  |  |  |  |  |  |  | 
CCN[C@H]1C[C@H](C)S(=O)(=O)c2sc(S(N)(=O)=O)cc21 [Dorzolamide] |  |  | > 256 | 128 | 16 | > 128 | 8 | > 128 | 8 | no major shift or change | > 128 | 8
